Measurements published in ChEMBL document CHEMBL1201862, “PubChem BioAssay data set” (2004).
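How tested: cells in 96-well plates exposed to compound for 48 hours at five concentrations. GI50 marks 50% less growth.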 Activity calls are given as the source filed them. Rule as the data show it: active = GI50 up to about 1.1 µM and inactive = higher.

Tests used:
Assay in all cases: inhibition of tumour cell growth, NCI panel, 48 h
[1] = tested on: HCT-15
[2] = tested on: PC-3
[3] = tested on: A549
[4] = tested on: MDA-N
[5] = tested on: OVCAR-3
[6] = tested on: KM12
[7] = tested on: MDA-MB-435
[8] = tested on: MCF7
[9] = tested on: SK-MEL-2
[10] = tested on: OVCAR-8
[11] = tested on: ACHN
[12] = tested on: HCC 2998
[13] = tested on: IGROV-1
[14] = tested on: HL-60
[15] = tested on: BT-549
[16] = tested on: OVCAR-5
[17] = tested on: K562
[18] = tested on: NCI-H226
[19] = tested on: HOP-92

## COc1ccccc1/C=C/c1ccnc2ccccc12
[1]
  GI50: 12.3 µM
[2]
  GI50: 14.3 µM (inactive)
[3]
  GI50: 14.5 µM (inactive)
[4]
  GI50: 11.6 µM (inactive)
[5]
  GI50: 13.8 µM (inactive)
[6]
  GI50: 12.3 µM (inactive)
[7]
  GI50: 7.16 µM (inactive)
[8]
  GI50: 4.25 µM (inactive)
[9]
  GI50: 16.4 µM (inactive)
[10]
  GI50: 15.4 µM (inactive)
[11]
  GI50: 16.4 µM (inactive)
[12]
  GI50: 17.5 µM (inactive)
[13]
  GI50: 4.97 µM (inactive)
[14]
  GI50: 7.64 µM (inactive)
[15]
  GI50: 10.9 µM (inactive)
[16]
  GI50: 17.3 µM (inactive)
[17]
  GI50: 10.7 µM (inactive)
[18]
  GI50: 15.8 µM (inactive)
[19]
  GI50: 12.8 µM (inactive)

## COc1cc(C2CC(C)(O)Oc3cc4c(cc32)OCO4)cc(OC)c1OC (centres undefined)
[1]
  GI50: 0.521 µM
[2]
  GI50: 0.274 µM (active)
[3]
  GI50: 2.49 µM (inactive)
[4]
  GI50: 0.166 µM (active)
[5]
  GI50: 0.315 µM (active)
[6]
  GI50: 0.191 µM (active)
[7]
  GI50: 0.169 µM (active)
[8]
  GI50: 0.321 µM (active)
[9]
  GI50: 1.04 µM (active)
[10]
  GI50: 0.421 µM (active)
[11]
  GI50: 0.708 µM (active)
[12]
  GI50: 1.31 µM (inactive)
[13]
  GI50: 0.668 µM (active)
[14]
  GI50: 0.247 µM (active)
[15]
  GI50: 0.583 µM (active)
[16]
  GI50: 10.9 µM (inactive)
[17]
  GI50: 0.386 µM (active)
[18]
  GI50: 0.891 µM (active)
[19]
  GI50: 2.56 µM (inactive)

## CCc1nc(N)c2nc(-c3cccs3)oc2n1
[1]
  GI50: 86.9 µM
[2]
  GI50: > 100 µM (inactive)
[3]
  GI50: > 100 µM (inactive)
[4]
  GI50: > 100 µM (inactive)
[5]
  GI50: > 100 µM (inactive)
[6]
  GI50: > 100 µM (inactive)
[7]
  GI50: > 100 µM (inactive)
[8]
  GI50: > 100 µM (inactive)
[9]
  GI50: > 100 µM (inactive)
[10]
  GI50: > 100 µM (inactive)
[11]
  GI50: 36.4 µM (inactive)
[12]
  GI50: > 100 µM (inactive)
[13]
  GI50: 69.7 µM (inactive)
[14]
  GI50: > 100 µM (inactive)
[15]
  GI50: > 100 µM (inactive)
[16]
  GI50: > 100 µM (inactive)
[17]
  GI50: > 100 µM (inactive)
[18]
  GI50: > 100 µM (inactive)
[19]
  GI50: > 100 µM (inactive)

## COC(=O)/C=C1/OC(c2ccccc2)=C(Cl)C1=O
[1]
  GI50: 8.97 µM
[2]
  GI50: 15.2 µM (inactive)
[3]
  GI50: 26.4 µM (inactive)
[4]
  GI50: 20.3 µM (inactive)
[5]
  GI50: 16.7 µM (inactive)
[6]
  GI50: 21 µM (inactive)
[7]
  GI50: 19.3 µM (inactive)
[8]
  GI50: 16.7 µM (inactive)
[9]
  GI50: 21.3 µM (inactive)
[10]
  GI50: 21.3 µM (inactive)
[11]
  GI50: 17.7 µM (inactive)
[12]
  GI50: 20.2 µM (inactive)
[13]
  GI50: 19.8 µM (inactive)
[14]
  GI50: 3.95 µM (inactive)
[15]
  GI50: 18.5 µM (inactive)
[16]
  GI50: 19 µM (inactive)
[17]
  GI50: 6.07 µM (inactive)
[18]
  GI50: 27.5 µM (inactive)
[19]
  GI50: 20 µM (inactive)

## CCCCN(CCCC)C1(c2cc3ccccc3s2)CCCCC1.[O-][Cl+3]([O-])([O-])O
[1]
  GI50: 15.5 µM
[2]
  GI50: 17.9 µM (inactive)
[3]
  GI50: 18.2 µM (inactive)
[4]
  GI50: 15.4 µM (inactive)
[5]
  GI50: 15.7 µM (inactive)
[6]
  GI50: 16 µM (inactive)
[7]
  GI50: 13.3 µM (inactive)
[8]
  GI50: 17.3 µM (inactive)
[9]
  GI50: 19.8 µM (inactive)
[10]
  GI50: 18.7 µM (inactive)
[11]
  GI50: 16.6 µM (inactive)
[12]
  GI50: 14.1 µM (inactive)
[13]
  GI50: 15.5 µM (inactive)
[14]
  GI50: 17.7 µM (inactive)
[15]
  GI50: 19.9 µM (inactive)
[16]
  GI50: 18.4 µM (inactive)
[17]
  GI50: 16.7 µM (inactive)
[18]
  GI50: 17.6 µM (inactive)
[19]
  GI50: 12.5 µM (inactive)

## CC(C)C[C@H](NC(=O)[C@H](Cc1cccc2ccccc12)NS(=O)(=O)c1cccc2cccnc12)B(O)O
[1]
  GI50: 0.227 µM
[2]
  GI50: < 0.0272 µM (active)
[3]
  GI50: 0.0435 µM (active)
[4]
  GI50: < 0.01 µM (active)
[5]
  GI50: < 0.0111 µM (active)
[6]
  GI50: 0.0432 µM (active)
[7]
  GI50: < 0.01 µM (active)
[8]
  GI50: < 0.0151 µM (active)
[9]
  GI50: < 0.0158 µM (active)
[10]
  GI50: 0.0557 µM (active)
[11]
  GI50: 0.0327 µM (active)
[12]
  GI50: 0.00219 µM (active)
[13]
  GI50: < 0.0208 µM (active)
[14]
  GI50: < 0.01 µM (active)
[15]
  GI50: < 0.0306 µM (active)
[16]
  GI50: < 0.0142 µM (active)
[17]
  GI50: < 0.0196 µM (active)
[18]
  GI50: 0.000208 µM (active)
[19]
  GI50: 0.00726 µM (active)
